# From patent US4620871A (priority 1980, dated 1986)
# Experiments:
# Maize = assay: Inhibition of the decomposition of chlorophyll in maize; details: for Chlorophyll content: 100 mg green plant, control 0.65; for activation at 200 ppm: Zea mays, 96 h, read-out: Promotion
# Experimental: (§1) Thereafter chlorphyll was extracted from the leaf segments with methanol. To determine the starting state, chlorophyll was extracted with methanol from untreated leaf segments weighing 200 mg. In the control test the leaf segments, weighing 200 mg, were floated on the surface of distilled water for 4 days in the dark, and then chlorophyll was extracted from the leaf segments with methanol. […] For alfalfa and maize the chlorphyll contents of 100 mg of green plant were examined.
# bean leaves = assay: Incorporation of Gly-2-14C in bean leaves (Example 36); details: 18 hours; for Incorporation of Gly-2-14C: fresh weight, control 3.52; for Incorporation of Gly-2-14C, %: increase over control
# Experimental: (§2) The biological activities of cytokinin-like factors can be well characterized by measuring the intensity of the photosynthetic carbon dioxide fixation and the incorporation of labelled amino acids into the TCA-insoluble protein fraction. The intensity of photosynthetic carbon dioxide fixation was determined on maize leaves, utilizing ^14 CO2, whereas the incorporation of amino acids was examined on bean leaves, utilizing […]-^14 C.
# Alfalfa [1] = assay: Inhibition of the decomposition of chlorophyll in alfalfa; details: for Chlorophyll content: 200 ppm, 100 mg green plant, control 0.78; for activation at 200 ppm: Medicago sativa, 96 h, read-out: Promotion
# Experimental: as §1
# Bean [2] = assay: Stimulation of photosynthesis, 14CO2 incorporation, bean leaf discs (Example 20); details: 2 hours; for activation at 200 ppm: foliar
# Experimental: The specific radioactivities of the stock solutions were determined by liquid scintillation. In the control test untreated leaf discs were exposed to labelled carbon, dioxide, and the amount of carbon dioxide incorporated under such conditions was regarded as standard.
# maize leaves = assay: Fixation of 14CO2 in maize leaves (Example 36); details: 18 hours; for Fixation of 14CO2: fresh weight, control 5.72; for Fixation of 14CO2, %: increase over control
# Experimental: as §2
# Bean [3] = assay: Inhibition of the decomposition of chlorophyll in bean leaf segments; details: 4 days dark
# Experimental: (§3) The active agent to be tested was dissolved in distilled water to form a 200 ppm solution, and leaf segments of the plants under examination, weighing 200 mg, were floated on the surface of the solution for 4 days in the dark. Thereafter chlorphyll was extracted from the leaf segments with methanol.
# (§4) To determine the starting state, chlorophyll was extracted with methanol from untreated leaf segments weighing 200 mg. In the control test the leaf segments, weighing 200 mg, were floated on the surface of distilled water for 4 days in the dark, and then chlorophyll was extracted from the leaf segments with methanol.
# (§5) The chlorophyll concentration was determined by measuring the extinction of the extracts at 665 mμ.
# soybean leaf segments = assay: Stimulation of the protein level of soybean, glycine-14C incorporation (Example 18); details: 24 hours
# Experimental: The active agent to be tested was dissolved in distilled water to form a 200 ppm solution, and soybean leaf segments, weighing 200 mg, were floated on the surface of the solution for 24 hours. In the control test leaf segments, weighing 200 mg, were floated on the surface of distilled water.
# The leaf segments were washed with distilled water, and then treated for 3 hours with 20 ml of a solution containing labelled amino acid (glycine-^14 C; activity: 2 μCi). After this exposition period the leaf segments were washed with an aboundant amount of water, and the protein content of the leaf segments was isolated in a manner known per se. Stock solution was prepared from the isolated protein, and the specific radioactivity of the solution was determined by liquid scintillation.
# Soybean [4] = assay: Total and protein nitrogen content of soybean (Example 39); format: in vivo
# Description: The effects of 1,4-dihydroxyphthalazine and salts thereof exerted on the total nitrogen content and protein nitrogen content of soybean were examined as described in Example 27. The plants were sprayed with the compositions according to the invention at the beginning of the flowering of the apical cluster.
# Soybean [5] = assay: Inhibition of the decomposition of chlorophyll in soybean leaf segments; details: 4 days dark
# Experimental: as §3, §4, §5
# hybrid maize = assay: Grain yield of maize (Example 29); format: in vivo
# Experimental: The compositions according to the invention were applied as seed dressing agents onto the sowing-seeds of hybrid maize in a dosis of 0.5 kg/ha. The powdery compositions were wetted with water prior to application. The stand was sprayed three times during the cultivation period: first at the four-leaves development stage with a dosis of 3 kg/ha, then prior to tasseling with a dosis of 1 kg/ha, and finally prior to pollen ripening with a dosis of 2 kg/ha. The crop was evaluated as May shelled corn.
# Alfalfa [6] = assay: Alfalfa field tests 1979, Boly (Example 26); format: in vivo
# Description: The effects of the compositions according to the invention exerted on the crop yield (green yield), crude protein content, protein nitrogen content and C/N ratio of alfalfa, observed under field conditions in the tests performed in 1979 at the Agricultural Combinate of Boly, Hungary, are listed in Table 17.
# maize for silage = assay: Maize for silage field tests 1979, Boly (Example 28); format: in vivo
# Description: The effects of the cytokinin-like regulators on the crop yield, crude protein content and real protein content of maize for silage, observed under field conditions in the tests performed in 1979 at the Agricultural Combinate of Boly, Hungary, are listed in Table 20.
molecule,measurement,setting,value
N--bromoethyl-benzimidazolium bromide,Promotion,Maize; 200 ppm,9.2%
same,Chlorophyll content,Maize; 200 ppm,0.71 mg
same,Incorporation of Gly-2-14C,bean leaves,4.36 μCi/g
same,"Incorporation of Gly-2-14C, %",bean leaves,24%
same,Chlorophyll content,Alfalfa [1],0.64 mg
same,Stimulation (14CO2 incorporation),Bean [2]; 200 ppm,57%
same,Fixation of 14CO2,maize leaves,6.46 μCi/g
same,"Fixation of 14CO2, %",maize leaves,13%
"Oc1nnc(O)c2ccccc12 [1,4-Dihydroxyphthalazine]",Chlorophyll,"Bean [3]; 200 ppm, control 4.2",5.8 mg
same,activation at 200 ppm,"Bean [3]; foliar, 96 h, read-out: Promotion",38%
same,Radioactivity,"soybean leaf segments; 200 ppm, control 11.9",16.1 mu Ci/100 mg
same,activation at 200 ppm,soybean leaf segments; Glycine max,35.3%
same,Protein nitrogen content,Soybean [4]; control 1.9,3.8 % of dry substance
same,Total nitrogen content,Soybean [4]; control 2.6,4.6 % of dry substance
same,"Protein nitrogen content, increase",Soybean [4]; in vivo,100.0%
same,"Total nitrogen content, increase",Soybean [4]; in vivo,77.0%
same,Chlorophyll,"Soybean [5]; 200 ppm, control 3.5",4.2 mg
same,activation at 200 ppm,"Soybean [5]; Glycine max, foliar, 96 h, read-out: Promotion",20%
Cn1cnc2ccccc21 [N--methyl-benzimidazolium bromide],Chlorophyll content,Maize; 200 ppm,0.80 mg
same,activation at 200 ppm,Maize,23%
same,Incorporation of Gly-2-14C,bean leaves,4.75 μCi/g
same,"Incorporation of Gly-2-14C, %",bean leaves,35%
same,Chlorophyll content,Alfalfa [1],0.83 mg
same,activation at 200 ppm,Alfalfa [1],6.4%
same,activation at 200 ppm,Bean [2],125%
same,Fixation of 14CO2,maize leaves,8.12 μCi/g
same,"Fixation of 14CO2, %",maize leaves,42%
CCn1cnc2ccccc21 [N--ethyl-benzimidazolium bromide],Chlorophyll content,Maize; 200 ppm,0.79 mg
same,activation at 200 ppm,Maize,21.5%
same,Incorporation of Gly-2-14C,bean leaves,4.25 μCi/g
same,"Incorporation of Gly-2-14C, %",bean leaves,21%
same,Chlorophyll content,Alfalfa [1],0.85 mg
same,activation at 200 ppm,Alfalfa [1],8.9%
same,activation at 200 ppm,Bean [2],184%
same,Fixation of 14CO2,maize leaves,6.72 μCi/g
same,"Fixation of 14CO2, %",maize leaves,18%
"CC(C)[n+]1c[nH]c2ccccc21.[Cl-] [N--Isopropyl-benzimidazolium chloride, N-isopropyl-benzimidazolium chloride]","Grain yield, increase",hybrid maize; in vivo,57.1%
same,Grain yield,"hybrid maize; seed dressing 0.5 kg/ha + sprays 3, 1, 2 kg/ha, control 132.8",208.5 q/ha
same,Incorporation of Gly-2-14C,bean leaves,4.85 μCi/g
same,"Incorporation of Gly-2-14C, %",bean leaves,35%
same,Fixation of 14CO2,maize leaves,10.92 μCi/g
same,"Fixation of 14CO2, %",maize leaves,92%
same,C/N ratio,Alfalfa [6]; control 5.31,4.20
same,P2O5 content,Alfalfa [6]; control 8.3,10.9 % of dry substance
same,Crude protein content,Alfalfa [6]; control 21.3,25.8 % of dry substance
same,Green yield,Alfalfa [6]; control 120,142 q/ha
same,"C/N ratio, decrease",Alfalfa [6]; in vivo,21.0%
same,"Crude protein content, increase",Alfalfa [6]; in vivo,21.5%
same,"Green yield, increase",Alfalfa [6]; in vivo,18.7%
same,"P2O5 content, increase",Alfalfa [6]; in vivo,31.7%
same,P2O5 content,maize for silage; control 7.5,9.8 % of dry substance
same,Crude protein content,maize for silage; control 13.2,17.1 % of dry substance
same,C/N ratio,maize for silage; control 31.4,23.5
same,Green weight,maize for silage; control 310.2,398.2 q/ha
same,"C/N ratio, decrease",maize for silage; in vivo,25.4%
same,"Crude protein content, increase",maize for silage; in vivo,29.7%
same,"Green weight, increase",maize for silage; in vivo,28.4%
same,"P2O5 content, increase",maize for silage; in vivo,30.8%
